In US20090221069A1, “METHOD FOR AUGMENTING THE ABILITY OF T-CELLS AND OTHER CELLS FOR FIGHTING DISEASE AND INVADE DISEASED ORGANS, FOR ELEVATING CD3 ZETA AND TNF-ALPHA EXPRESSION IN T-CELLS, AND MIXING T-CELL BOOSTING AND KIT PARTICULARLY USEFUL IN SUCH METHOD” (priority 2005, published 2009):
Where two headings read alike, the source gives them in different places. No end group written: not given here.

Tests used:
[1] = test system: Normal human T-cells; type: cell-based
Description: Normal human T-cells, isolated from fresh peripheral blood lymphocytes, were treated with 10 nM of neurotransmitters: either GnRH-II or dopamine (30 min or 24 hr at 37° C.). Following this neurotransmitter treatment, the T-cells were washed with phosphate-buffered saline (PBS) and […] with paraformaldehyde (PFA) for 20 min at room temperature (1×10^6 cells resuspended in 50 μl PBS+100 μl 0.5% PFA). The T-cells were then washed again with PBS and subjected to single immunofluorescence staining, using a mouse anti-human TCR/CD3zeta chain subunit (also called CD247) mAb (Serotec) at 1:100 dilution/1×10^6 cells, diluted in 10 μg/ml digitonin (Sigma) cold solution, for 30 min on ice. For isotype control, cells were stained with normal mouse serum (Jackson Immunoresearch Laboratories). The cells were then stained with a fluorescein isothiocyanate (FITC)-conjugated anti-mouse IgG (100 μl of 1:100 dilution; Jackson). Cells stained with the second Ab only served as additional negative controls. Fluorescence profiles were recorded in a FACSort.

[2] = test system: human cancer growing in SCID mice; type: in vivo
[3] = test system: normal resting human T-cells; assay: Cytokine (TNFα, IFNγ, IL-10, IL-4) secretion by resting T-cells, sandwich ELISA; type: cell-based; conditions: for TNFα secretion in resting normal human T-cells: highest concentration used (DTX-K 100 nM), FIG. 18a; for cytokine secretion profile (TNFα, IFNγ, IL-4, IL-10): data not shown
Description: Human T-cells: Normal human T-cells were purified from peripheral blood of healthy donors as described (19, 23, 61), and the resulting cell population, containing ≧90% T-cells, was suspended in RPMI medium supplemented with 10% FCS, 1% LGlutamine and antibiotics (Biological Industries, Bet Haemek, Israel) and maintained at 2×10^6 cells/ml (37° C./5% CO2).
Determination of TNFα, IFNγ, IL-10 and IL-4 by ELISA: Freshly-purified normal resting human T-cells (2×10^6/ml) were incubated in 24-well plates (Costar, Corning, N.Y.) and the various channel blockers were added. Importantly, no other stimulating molecule (e.g. phorbol esters, antigens, anti-CD3/CD28 mAbs) was added. Cytokine […] levels were measured in supernatants after 24 hr for TNFα and IFNγ and after 72 hr for IL-10 and IL-4, by quantitative sandwich ELISA (R&D, Minneapolis, Minn.), according to the manufacturer's instructions.

[4] = test system: ion channel; conditions: from manufacturer's data sheets and/or the literature; cited from earlier work
[5] = test system: human T-cells; conditions: data not shown
[6] = SCID mice, preliminary evidence

Compound: GnRH-II (QHWSHGWYPG; ends and bridges not checked; UniProt O43555 24-33, looked up)
- intensity of CD3zeta expression (number of CD3zeta per T-cell) ([1]; 10 nM, 30 minutes exposure): very significant increase
- number (percentage) of cells expressing CD3zeta ([1]; 10 nM, 30 minutes exposure, no other molecules): very significant increase
- overall in vivo activity of human tumor-specific T-cells against human cancer (cancer rejection) [2, 6]: augmented significantly

Compound: Kaliotoxin
- TNFα secretion in resting normal human T-cells ([3]; 24 hours exposure): somewhat weaker effect
- effective concentrations [4]: 0.001 to 0.1 µM

Compound: NCCc1ccc(O)c(O)c1 [dopamine]
- number (percentage) of cells expressing CD3zeta [1]: clear increase
- number of T-cells expressing CD3zeta, longer-term exposure versus 30 minutes [1]: significantly more pronounced
- overall in vivo activity of human tumor-specific T-cells against human cancer (cancer rejection) ([2]; mouse, in vivo): augmented significantly

Compound: Dendrotoxin-K
- dose dependence of TNFα secretion triggering ([3]; 24 hours exposure, FIG. 18b): dose dependent
- TNFα secretion in resting normal human T-cells ([3]; 24 hours exposure): marked TNFα secretion
- TNFα secretion by T-cells from six different individuals ([3]; 24 hr, 100 nM, FIG. 18c-h): triggered marked TNFα secretion
- cytokine secretion profile (TNFα, IFNγ, IL-4, IL-10) [3]: selectively increased only TNFα secretion
- effect on cell survival of human T-cells [5]: no significant effect
- effect on proliferation of human T-cells [5]: no significant effect

Compound: N[C@@H](CCC(=O)O)C(=O)O [glutamate]
- overall in vivo activity of human tumor-specific T-cells against human cancer (cancer rejection) [2, 6]: augmented significantly

Compound: O=C(O)c1cc([N+](=O)[O-])ccc1NCCCc1ccccc1 [NPPB]
- effective concentrations [4]: 100 to 200 µM

Compound: C=C[C@H]1C[N@@]2CC[C@H]1C[C@H]2[C@H](O)c1ccnc2ccc(OC)cc12 [Quinine]
- TNFα secretion in resting normal human T-cells ([3]; 24 hours exposure): somewhat weaker effect
- effective concentrations [4]: 1 to 10 µM

Compound: CCCCCCCCCCCCCC(=O)O[C@@H]1[C@@H](C)[C@@]2(O)[C@@H](C=C(CO)C[C@]3(O)C(=O)C(C)=C[C@@H]23)[C@@H]2C(C)(C)[C@]12OC(C)=O [PMA]
- cytokine secretion profile (TNFα, IFNγ, IL-4, IL-10) [3]: increased secretion of TNFα, IFNγ, IL-4 and IL-10
